Like-named read-outs stand apart in the source and are kept apart here.

Series [1] is described as follows: Conversion of Compound B to Compound A in the rat (intra-duodenal infusion, portal vein sampling). In kind it is in vivo, male Sprague-Dawley rats. As to conditions: intra-duodenal infusion of Compound B 10 mg/kg, analyte as labelled; for AUC(0-t): 10 mg/kg; for AUC(0-t) / Cmax: fasted, PVC collection, plasma. The protocol: (§1) The following section details the liquid chromatography with tandem mass spectrometry (LC/MS/MS)-based bioanalytical methods developed to support the analysis of the in vivo biological samples (brain, plasma, urine) from studies conducted in the dog and rat.
(§2) Sample Preparation: Blood, Plasma, Serum, Urine. Plasma and blood samples were prepared as described below. If dilutions were required, an aliquot of the sample was diluted into the respective matrix. For the analysis of urine samples, an aliquot was first diluted into blank plasma and then treated as described below.
(§3) Sample preparation was conducted manually or on a Packard MultiPROBE automated liquid handler. The internal standard (IS) solution (1000 nM (S,E)-5-bromo-N-(1′-azaspiro[oxazolidine-5,3′-bicyclo[2.2.2]octane]-2-ylidene)pyrazin-2-amine) was prepared in acetonitrile. Two hundred microliters of the IS solution was added to each well of a Strata protein precipitation filter plate (Phenomenex, Torrance, Calif.). Biological samples (60 μL) were added to the filter plate. The filter plate was attached atop a standard 96 well plate and the entire unit was centrifuged at 1100 rpm for 2 minutes. The supernatant was collected in the 96 well plate. Five microliters of each sample was injected onto the LC/MS/MS system for analysis.
(§4) Instrumentation. The UHPLC system used was an Agilent 1200 series (Agilent Technologies, Wilmington, Del.) coupled with CTC Analytics HTS PAL Auto Sampler (Leap Technologies, Carrboro, N.C.) that was equipped with a cooling stack so that samples were maintained at 10° C. during analysis. The analytical column used was a Waters Acquity HSS T3 (2.1×50 mm, 1.8 um particles) at 60° C. The mobile phase, which consisted of 0.1% formic acid in water (A) and 0.1% formic acid in acetonitrile (B), was delivered at a flow rate of 0.6 mL/min.
(§5) The UHPLC was interfaced to an API4000 QTrap LC/MS/MS System® (AppliedBiosystems/MDS Sciex, Foster City, Calif.) equipped with an electrospray ionization interface operating in the positive ionization mode. The source temperature was 500° C. Detection of each analyte was achieved through selected reaction monitoring. Ions representing the precursor (M+H)^+ species for Compound A, Compound B, and the IS were selected in quadrupole 1 and collisionally dissociated with nitrogen to generate specific product ions, which were subsequently monitored by quadrupole 3.
(§6) Standard Curve Ranges. Unless otherwise specified, the analysis of Compound A and Compound B were conducted against a standard curve ranging from 0.6 to 1,250 nM and 4.8 to 5,000 nM, respectively. The standard curve was fitted with a linear regression weighted by the square of the reciprocal concentration (1/x^2). Standards were analyzed in duplicate. Quality control samples were prepared in blank biological matrix at concentration levels within the range of the standard curve. The predicted concentrations of more than 80% of the QCs from various different matrices were within 20% of nominal values, indicating acceptable assay performance.
Conversion of N-oxide, Compound B, to Compound A in the rat. The conversion of Compound B to Compound A was evaluated in male Sprague-Dawley rats (260-280 g) Animals (N=3 per group) received Compound B as an intra-duodenal infusion (10 mg/kg over 10 minutes) via an indwelling intra-duodenal cannula (IDC) with collection via the intra-portal vein. Serial blood samples were obtained predose and at 0.17, 0.25, 0.5, 0.75, 1, 2, 4, 6, 8, and 24 hours post dose. Plasma samples, obtained by centrifugation at 4° C. (1500-2000×g), were stored at −20° C. until analysis.
All conversion studies in rats were performed in animals containing indwelling cannulas in the duodenum and portal vein. The studies were designed to isolate the role of the GI tract in the reduction of Compound B. Table IV summarizes the exposure of Compound B and Compound A in the portal vein following an intra-duodenal infusion of Compound B in the rat. […]

Series [2] in a line: Conversion of Compound B to Compound A in the dog (IV infusion and oral gavage, crossover). In kind it is in vivo, male beagle dogs. Particulars: for AUC(0-t): analyte as labelled, read-out: AUC(0-24 h). The method, then: as §1, §2, §3, §4, §5, §6
Conversion of N-oxide, Compound B, to Compound A in the dog. The conversion of Compound B to Compound A was evaluated in a crossover-design study in male beagle dogs. Three animals (5 to 8 kg) received Compound B by IV infusion (1 mg/kg over 5 minutes) via a cephalic vein and by oral gavage (5 mg/kg), with a 1-week washout between treatments. Serial blood samples (˜0.3 mL) were collected from a saphenous vein predose and at (0.083, 0.17 IV only), 0.25, 0.5, 0.75, 1, 2, 4, 6, 8, and 24 hours post dose, followed by centrifugation at 4° C. (1500-2000×g) to obtain plasma. Samples were stored at −20° C. until analysis by LC/MS/MS.
Table VI summarizes the PK parameters of Compound B and the appearance of Compound A following a single dose in dogs. Following either an IV or PO dose, the conversion of Compound B to Compound A was observed; however, it was more extensive after oral dosing. […]

Experiment in series [3]: as above
Format: in vivo, male beagle dogs. Particulars: plasma.

Where [4] appears, read: male, Sprague-Dawley, in vivo, read-out: AUC(0-4).
Where [5] appears, read: male, Sprague-Dawley, in vivo, read-out: Plasma concentration in the portal vein.
Where [6] appears, read: fed, IV infusion of Compound B 1 mg/kg, plasma.
Setting [7] is: male, beagle, fasted, oral gavage of Compound B 5 mg/kg, plasma.
The mark [8] stands for this setting: male, beagle, fed, IV infusion of Compound B 1 mg/kg, plasma.

With `[O-][N+]12CCC(CC1)[C@]1(CN=C(Nc3cc4ccccc4cn3)O1)C2` [Compound B, (S)-2-(Isoquinolin-3-ylamino)-4H-1′-azaspiro[oxazole-5,3′-bicyclo[2.2.2]octane]1′-oxide], the “Plasma concentration in the portal vein” value in series [1] (6 hours) is on record as “< LLQ”. Besides, the “Plasma concentration in the portal vein” value in series [1] (8 hours) is reported as “< LLQ”. Further, the “Plasma concentration in the portal vein” value in series [1] (24 hours) is listed as “< LLQ”. The AUC(0-t) in series [1] (setting [4]) worked out at 0.34 ± 0.04 µM·h. The compound also returned a Cmax in series [1] (male, Sprague-Dawley, in vivo) of 760 ± 240 nM. In addition, in series [1] (setting [5]), the concentration at 0.167 h was 601 nM, the concentration at 0.25 h stood at 758 nM, the concentration at 0.5 h is 177 nM and the concentration at 0.75 h stood at 90 nM. Also, in series [1] (setting [5]), the concentration at 1 h worked out at 69 nM, the concentration at 2 h worked out at 52 nM and the concentration at 4 h came to 18 nM. In series [2] (setting [6]), this compound registered a CLTp of 13.7 ± 4.0 mL/min/kg and a T-HALF of 9.4 ± 6.5 h. Besides, in series [2] (setting [7]), the AUC(0-inf) is 5.69 ± 0.39 µM·h, the peak level (Cmax) was 850 ± 460 nM and the AUC(0-t) is 5.16 ± 0.68 µM·h. In series [2] (setting [8]), the AUC(0-inf) was 3.94 ± 1.01 µM·h and the AUC(0-t) turned out to be 3.84 ± 0.92 µM·h. The Vd in series [2] (male, beagle, fed, IV infusion of Compound B 1 mg/kg, plasma, read-out: Vss) came out at 2 ± 0.2 L/kg. This compound gave a bioavailability in series [2] (male, beagle, plasma, fasted, oral gavage of Compound B 5 mg/kg) of 27 ± 15%.
For the compound `c1ccc2cc(NC3=NC[C@@]4(CN5CCC4CC5)O3)ncc2c1` [Compound A, (R)—N-(isoquinolin-3-yl)-4H-1′-azaspiro[oxazole-5,3′-bicyclo[2.2.2]octan]-2-amine], the AUC(0-t) in series [1] (setting [4]) was determined as 1.22 ± 1.1 µM·h. For the same compound, the AUC(0-t) in series [1] (male, Sprague-Dawley, in vivo, read-out: AUC(0-24 h)) was 2.55 ± 1.93 µM·h. For the same compound, the Cmax in series [1] (male, Sprague-Dawley, in vivo) amounted to 860 ± 340 nM. In series [1] (setting [5]), the concentration at 0.167 h worked out at 3 nM, the concentration at 0.25 h came out at 7 nM, the concentration at 0.5 h is 112 nM and the concentration at 0.75 h worked out at 207 nM. Also, in series [1] (setting [5]), the concentration at 1 h was 448 nM, the concentration at 2 h worked out at 750 nM and the concentration at 4 h was 455 nM. In addition, the concentration at 6 h in series [1] (male, Sprague-Dawley, in vivo, 6 hours, read-out: Plasma concentration in the portal vein) was 434 nM. In addition, the concentration at 8 h in series [1] (male, Sprague-Dawley, in vivo, 8 hours, read-out: Plasma concentration in the portal vein) was 125 nM. In series [1] (male, Sprague-Dawley, in vivo, 24 hours, read-out: Plasma concentration in the portal vein), the concentration at 24 h was found to be 6 nM. Besides, the AUC in series [3] (male, beagle, PO dosing of Compound B (10 mg/kg as printed in text), read-out: plasma AUC of Compound A after PO dosing of Compound B) stood at 0.7 µM·h. Further, the AUC in series [3] (PO administration of Compound A alone, read-out: oral AUC of Compound A following PO administration of Compound A alone) was 1.74 µM·h. Also, in series [2] (IV), the “AUC of Compound A after IV Compound B as percent of the AUC of Compound A after IV administration of Compound A” value is on record as roughly 3%. Moreover, the “AUC of Compound A after PO Compound B as percent of the oral AUC of Compound A after PO Compound A alone” value in series [2] (PO) is “roughly 40%”. Further, the AUC(0-t) in series [2] (setting [7]) came to 0.7 ± 0.2 µM·h. Further, the AUC(0-t) in series [2] (setting [8]) was 0.03 µM·h.
